Drawing on ChEMBL document CHEMBL1143858, “Structure-based design and synthesis of novel macrocyclic pyrazolo[1,5-a] [1,3,5]triazine compounds as potent inhibitors of protein kinase CK2 and their anticancer activities” (Bioorg Med Chem Lett, 2008), this text covers IC50 and Ki for 14 molecules.

One experiment concerns HCT-116. Put plainly: Inhibition of human HCT116 cells by MTT assay. The experiment is classed as functional, cell-based. On the technique in general: Tetrazolium dyes change colour on reduction, which living cells bring about.
The test system of a further experiment is PC-3. Put plainly: Inhibition of human PC3 cells by MTT assay. It is filed as functional, cell-based.
The target of experiment [1] is Casein kinase II subunit alpha (Zea mays, UniProt P28523). Put plainly: Inhibition of corn CK2.
Casein kinase II subunit alpha, sequence (P28523 whole entry): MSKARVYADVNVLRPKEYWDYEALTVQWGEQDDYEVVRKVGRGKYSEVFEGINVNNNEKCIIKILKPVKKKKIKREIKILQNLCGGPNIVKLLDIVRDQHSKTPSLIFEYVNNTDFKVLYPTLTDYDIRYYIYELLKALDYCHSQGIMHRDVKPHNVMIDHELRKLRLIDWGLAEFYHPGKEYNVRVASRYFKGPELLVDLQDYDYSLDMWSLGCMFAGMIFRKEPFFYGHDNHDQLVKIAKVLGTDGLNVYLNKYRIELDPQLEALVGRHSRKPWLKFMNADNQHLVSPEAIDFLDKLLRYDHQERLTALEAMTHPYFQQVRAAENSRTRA

Take `CN(C)C1CCN(C(=O)c2cccc(Nc3nc4nc5c(cnn35)CCCCC(=O)Nc3cccc(c3)N4)c2)C1` (stereo unspecified): the IC50 – broadly, the concentration needed to halve the response being measured – in the experiment with HCT-116 (Homo sapiens, HCT-116) came out at 190 nM; with PC-3 (Homo sapiens, PC-3) it was 230 nM. Moreover, in experiment [1], the Ki (commonly a measure of affinity in units of concentration, obtained from inhibition or displacement) was 1.4 nM.
In turn, `O=C1CCCCc2cnn3c(Nc4cccc(C(=O)N5CCNCC5)c4)nc(nc23)Nc2cccc(c2)N1` returned an IC50 in the experiment on HCT-116 (Homo sapiens, HCT-116) of 440 nM. Also, the affinity in experiment [1], expressed as Ki, was 0.8 nM.
For `CN1CCN(C(=O)c2cccc(Nc3nc4nc5c(cnn35)CCCCC(=O)Nc3cccc(c3)N4)c2)CC1`, the 50% inhibitory concentration (IC50) turned out to be 250 nM in the experiment with HCT-116 (Homo sapiens, HCT-116) and 500 nM in the experiment with PC-3 (Homo sapiens, PC-3). The molecule further registered a Ki in experiment [1] of 1.3 nM.
In the same order, the values of `CN1CCC(N(C)C(=O)c2cccc(Nc3nc4nc5c(cnn35)CCCCC(=O)Nc3cccc(c3)N4)c2)C1` (stereo unspecified) are 83 nM, 120 nM and 2 nM.
Regarding `CCN(CC)C1CN(C(=O)c2cccc(Nc3nc4nc5c(cnn35)CCCCC(=O)Nc3cccc(c3)N4)c2)C1`, the IC50 with HCT-116 (Homo sapiens, HCT-116) was found to be 300 nM; with PC-3 (Homo sapiens, PC-3), 620 nM. In experiment [1], this molecule had a Ki of 3.4 nM.
In the experiment with PC-3 (Homo sapiens, PC-3), `CC(=O)Nc1cccc(Nc2nc(NC3CC3)n3ncc(C#N)c3n2)c1` returned an IC50 of 5100 nM.
On to `CN(C)CCN(C)C(=O)c1cccc(Nc2nc3nc4c(cnn24)CCCCC(=O)Nc2cccc(c2)N3)c1`, for which the IC50 came to 130 nM in the experiment with HCT-116 (Homo sapiens, HCT-116) and 210 nM in the experiment on PC-3 (Homo sapiens, PC-3). This molecule also came in with a Ki in experiment [1] of 4 nM.
Regarding `CCN(CC)C1CCN(C(=O)c2cccc(Nc3nc4nc5c(cnn35)CCCCC(=O)Nc3cccc(c3)N4)c2)C1` (stereo unspecified), the IC50 worked out at 130 nM in the experiment on HCT-116 (Homo sapiens, HCT-116) and 140 nM in the experiment on PC-3 (Homo sapiens, PC-3). In experiment [1], the Ki was 2.2 nM.
The molecule `CCN(CC)CCN(C)C(=O)c1cccc(Nc2nc3nc4c(cnn24)CCCCC(=O)Nc2cccc(c2)N3)c1` showed an IC50 with HCT-116 (Homo sapiens, HCT-116) of 150 nM. In experiment [1], this molecule displayed a Ki of 2.4 nM.
Take `CN1CC(NC(=O)c2cccc(Nc3nc4nc5c(cnn35)CCCCC(=O)Nc3cccc(c3)N4)c2)C1`: the half-maximal inhibitory concentration (IC50) in the experiment with HCT-116 (Homo sapiens, HCT-116) stood at 270 nM; in the experiment with PC-3 (Homo sapiens, PC-3), 330 nM. The Ki in experiment [1] is 7.4 nM.
In the same order, the values of `CN(C)CCNC(=O)c1cccc(Nc2nc3nc4c(cnn24)CCCCC(=O)Nc2cccc(c2)N3)c1` are 240 nM, 380 nM and 5.2 nM.
Regarding `O=C1CCCCc2cnn3c(Nc4cccc(C(=O)N5CC(O)C5)c4)nc(nc23)Nc2cccc(c2)N1`, the IC50 was 330 nM in the experiment with HCT-116 (Homo sapiens, HCT-116) and 600 nM in the experiment with PC-3 (Homo sapiens, PC-3). For the same molecule, in experiment [1], the Ki turned out to be 3.6 nM.
For the molecule `CN1CCC(N(C)C(=O)c2cccc(Nc3nc4nc5c(cnn35)CCCCC(=O)Nc3cccc(c3)N4)c2)CC1`, the IC50 in the experiment with HCT-116 (Homo sapiens, HCT-116) came to 180 nM. Affinity in experiment [1] was put at a Ki of 1.4 nM.
`O=C1CCCCc2cnn3c(NC4CC4)nc(nc23)Nc2cccc(c2)N1`: the IC50 was 290 nM in the experiment with HCT-116 (hct-116) and 880 nM in the experiment on PC-3 (pc-3).
